# Experimental data reported in ChEMBL document CHEMBL4622939, “Synthesis and anti-proliferative activity of a novel 1,2,3-triazole tethered chalcone acetamide derivatives” (Bioorg Med Chem Lett, 2020).
# pIC50: −log10 of the molar value.
# System: A549
# Assay: Antiproliferative activity against human A549 cells assessed as cell growth inhibition by MTT assay
# Format: functional, cell-based
row,Structure (SMILES),pIC50
1,CCCCCCCCCCn1cc(/C=C/C(=O)c2ccc(N)cc2)nn1,4.45
2,CCCCCCCCCCn1cc(/C=C/C(=O)c2ccc(NC(=O)CN3CCN(c4ccc([N+](=O)[O-])cc4)CC3)cc2)nn1,4.19
3,COc1cccc2c1C(=O)c1c(O)c3c(c(O)c1C2=O)C[C@@](O)(C(=O)CO)C[C@@H]3O[C@H]1C[C@H](N)[C@H](O)[C@H](C)O1 [DOXORUBICIN],5.49
4,O=C(CN1CCC(Cc2ccccc2)CC1)Nc1ccc(C(=O)/C=C/c2cn(Cc3ccc(Br)cc3)nn2)cc1,4.40
5,CCCCCCCCn1cc(/C=C/C(=O)c2ccc(NC(=O)CN3CCN(C(=O)OC(C)(C)C)CC3)cc2)nn1,4.36
6,Nc1ccc(C(=O)/C=C/c2cn(Cc3ccc(Br)cc3)nn2)cc1,4.80
7,CCCCCCCCn1cc(/C=C/C(=O)c2ccc(N)cc2)nn1,4.57
8,O=C(CN1CCN(c2ccccc2)CC1)Nc1ccc(C(=O)/C=C/c2cn(Cc3ccc(Br)cc3)nn2)cc1,4.38

# Now from value to compound:
row,pIC50,Structure (SMILES)
1,4.17,CCCCCCCCCCn1cc(/C=C/C(=O)c2ccc(NC(=O)CN3CCC(Cc4ccccc4)CC3)cc2)nn1
2,4.83,O=C(CN1CCN(c2ccccc2F)CC1)Nc1ccc(C(=O)/C=C/c2cn(Cc3ccc(Br)cc3)nn2)cc1
3,4.24,CCCCCCCCCCn1cc(/C=C/C(=O)c2ccc(NC(=O)CN3CCN(c4ccccc4F)CC3)cc2)nn1
4,5.06,O=C(CBr)Nc1ccc(C(=O)/C=C/c2cn(Cc3ccc(Br)cc3)nn2)cc1
5,4.34,CCCCCCCCn1cc(/C=C/C(=O)c2ccc(NC(=O)CN3CCN(c4ccc([N+](=O)[O-])cc4)CC3)cc2)nn1

# System: HeLa
# Assay: Antiproliferative activity against human HeLa cells assessed as cell growth inhibition by MTT assay
# Format: functional, cell-based
row,Structure (SMILES),pIC50
1,CCCCCCCCCCn1cc(/C=C/C(=O)c2ccc(N)cc2)nn1,4.13
2,CCCCCCCCCCn1cc(/C=C/C(=O)c2ccc(NC(=O)CN3CCN(c4ccc([N+](=O)[O-])cc4)CC3)cc2)nn1,4.18
3,COc1cccc2c1C(=O)c1c(O)c3c(c(O)c1C2=O)C[C@@](O)(C(=O)CO)C[C@@H]3O[C@H]1C[C@H](N)[C@H](O)[C@H](C)O1 [DOXORUBICIN],5.56
4,O=C(CN1CCC(Cc2ccccc2)CC1)Nc1ccc(C(=O)/C=C/c2cn(Cc3ccc(Br)cc3)nn2)cc1,4.38
5,CCCCCCCCn1cc(/C=C/C(=O)c2ccc(NC(=O)CN3CCN(C(=O)OC(C)(C)C)CC3)cc2)nn1,4.49
6,Nc1ccc(C(=O)/C=C/c2cn(Cc3ccc(Br)cc3)nn2)cc1,4.79
7,CCCCCCCCn1cc(/C=C/C(=O)c2ccc(N)cc2)nn1,4.57
8,O=C(CN1CCN(c2ccccc2)CC1)Nc1ccc(C(=O)/C=C/c2cn(Cc3ccc(Br)cc3)nn2)cc1,4.10

# The next lines start with the values.
row,pIC50,Structure (SMILES)
1,4.14,CCCCCCCCCCn1cc(/C=C/C(=O)c2ccc(NC(=O)CN3CCC(Cc4ccccc4)CC3)cc2)nn1
2,5.04,O=C(CN1CCN(c2ccccc2F)CC1)Nc1ccc(C(=O)/C=C/c2cn(Cc3ccc(Br)cc3)nn2)cc1
3,4.32,CCCCCCCCCCn1cc(/C=C/C(=O)c2ccc(NC(=O)CN3CCN(c4ccccc4F)CC3)cc2)nn1
4,5.10,O=C(CBr)Nc1ccc(C(=O)/C=C/c2cn(Cc3ccc(Br)cc3)nn2)cc1
5,4.52,CCCCCCCCn1cc(/C=C/C(=O)c2ccc(NC(=O)CN3CCN(c4ccc([N+](=O)[O-])cc4)CC3)cc2)nn1

# System: MCF7
# Assay: Antiproliferative activity against human MCF7 cells assessed as cell growth inhibition by MTT assay
# Format: functional, cell-based
row,Structure (SMILES),pIC50
1,CCCCCCCCCCn1cc(/C=C/C(=O)c2ccc(N)cc2)nn1,4.28
2,CCCCCCCCCCn1cc(/C=C/C(=O)c2ccc(NC(=O)CN3CCN(c4ccc([N+](=O)[O-])cc4)CC3)cc2)nn1,4.35
3,COc1cccc2c1C(=O)c1c(O)c3c(c(O)c1C2=O)C[C@@](O)(C(=O)CO)C[C@@H]3O[C@H]1C[C@H](N)[C@H](O)[C@H](C)O1 [DOXORUBICIN],5.43
4,O=C(CN1CCC(Cc2ccccc2)CC1)Nc1ccc(C(=O)/C=C/c2cn(Cc3ccc(Br)cc3)nn2)cc1,4.26
5,CCCCCCCCn1cc(/C=C/C(=O)c2ccc(NC(=O)CN3CCN(C(=O)OC(C)(C)C)CC3)cc2)nn1,4.01
6,Nc1ccc(C(=O)/C=C/c2cn(Cc3ccc(Br)cc3)nn2)cc1,4.60
7,CCCCCCCCn1cc(/C=C/C(=O)c2ccc(N)cc2)nn1,4.51
8,O=C(CN1CCN(c2ccccc2)CC1)Nc1ccc(C(=O)/C=C/c2cn(Cc3ccc(Br)cc3)nn2)cc1,4.31

# Results, then the compound that gave them:
row,pIC50,Structure (SMILES)
1,4.26,CCCCCCCCCCn1cc(/C=C/C(=O)c2ccc(NC(=O)CN3CCC(Cc4ccccc4)CC3)cc2)nn1
2,4.95,O=C(CN1CCN(c2ccccc2F)CC1)Nc1ccc(C(=O)/C=C/c2cn(Cc3ccc(Br)cc3)nn2)cc1
3,4.39,CCCCCCCCCCn1cc(/C=C/C(=O)c2ccc(NC(=O)CN3CCN(c4ccccc4F)CC3)cc2)nn1
4,5.00,O=C(CBr)Nc1ccc(C(=O)/C=C/c2cn(Cc3ccc(Br)cc3)nn2)cc1
5,4.31,CCCCCCCCn1cc(/C=C/C(=O)c2ccc(NC(=O)CN3CCN(c4ccc([N+](=O)[O-])cc4)CC3)cc2)nn1

# System: SK-N-SH
# Assay: Antiproliferative activity against human SK-N-SH cells assessed as cell growth inhibition by MTT assay
# Format: functional, cell-based
row,Structure (SMILES),pIC50
1,CCCCCCCCCCn1cc(/C=C/C(=O)c2ccc(N)cc2)nn1,4.08
2,CCCCCCCCCCn1cc(/C=C/C(=O)c2ccc(NC(=O)CN3CCN(c4ccc([N+](=O)[O-])cc4)CC3)cc2)nn1,4.39
3,COc1cccc2c1C(=O)c1c(O)c3c(c(O)c1C2=O)C[C@@](O)(C(=O)CO)C[C@@H]3O[C@H]1C[C@H](N)[C@H](O)[C@H](C)O1 [DOXORUBICIN],5.55
4,O=C(CN1CCC(Cc2ccccc2)CC1)Nc1ccc(C(=O)/C=C/c2cn(Cc3ccc(Br)cc3)nn2)cc1,4.37
5,CCCCCCCCn1cc(/C=C/C(=O)c2ccc(NC(=O)CN3CCN(C(=O)OC(C)(C)C)CC3)cc2)nn1,4.42
6,Nc1ccc(C(=O)/C=C/c2cn(Cc3ccc(Br)cc3)nn2)cc1,4.60
7,CCCCCCCCn1cc(/C=C/C(=O)c2ccc(N)cc2)nn1,4.54
8,O=C(CN1CCN(c2ccccc2)CC1)Nc1ccc(C(=O)/C=C/c2cn(Cc3ccc(Br)cc3)nn2)cc1,4.14

# More lines, now with the values ahead:
row,pIC50,Structure (SMILES)
1,4.48,CCCCCCCCCCn1cc(/C=C/C(=O)c2ccc(NC(=O)CN3CCC(Cc4ccccc4)CC3)cc2)nn1
2,4.89,O=C(CN1CCN(c2ccccc2F)CC1)Nc1ccc(C(=O)/C=C/c2cn(Cc3ccc(Br)cc3)nn2)cc1
3,4.46,CCCCCCCCCCn1cc(/C=C/C(=O)c2ccc(NC(=O)CN3CCN(c4ccccc4F)CC3)cc2)nn1
4,5.08,O=C(CBr)Nc1ccc(C(=O)/C=C/c2cn(Cc3ccc(Br)cc3)nn2)cc1
5,4.29,CCCCCCCCn1cc(/C=C/C(=O)c2ccc(NC(=O)CN3CCN(c4ccc([N+](=O)[O-])cc4)CC3)cc2)nn1
